Data taken from PubChem BioAssay AID1259407 (Chemical Carcinogenesis Research Information System (CCRIS), 2018).
Activity calls are given as the source filed them. No rule for the calls is given here.

Test system: CCRIS mutagenicity, Ames/micronucleus/aberration tests
Test: CCRIS mutagenicity studies
[1] = Test System: MOUSE LYMPHOMA, Strain/Indicator: L5178Y (TK+/TK-), Metabolic Activation: NONE, Method: SUSPENSION/PLATE
[2] = Test System: MOUSE LYMPHOMA, Strain/Indicator: L5178Y (TK+/TK-), Metabolic Activation: RAT, LIVER, S-9, AROCLOR 1254, Method: SUSPENSION/PLATE
[3] = Test System: AMES SALMONELLA TYPHIMURIUM, Strain/Indicator: TA98, Metabolic Activation: NONE, Method: STANDARD PLATE
[4] = Test System: AMES SALMONELLA TYPHIMURIUM, Strain/Indicator: TA98, Metabolic Activation: RAT, LIVER, S-9, AROCLOR 1254, Method: STANDARD PLATE
[5] = Test System: AMES SALMONELLA TYPHIMURIUM, Strain/Indicator: TA100, Metabolic Activation: NONE, Method: STANDARD PLATE
[6] = Test System: AMES SALMONELLA TYPHIMURIUM, Strain/Indicator: TA1535, Metabolic Activation: NONE, Method: STANDARD PLATE
[7] = Test System: AMES SALMONELLA TYPHIMURIUM, Strain/Indicator: TA1537, Metabolic Activation: NONE, Method: STANDARD PLATE

Measured: mutagenic call

FC(C(F)(F)F)C(F)(F)F
inactive: Test System: AMES SALMONELLA TYPHIMURIUM, Strain/Indicator: TA98, Metabolic Activation: NONE, Method: DESICCATOR inactive; negative | Test System: AMES SALMONELLA TYPHIMURIUM, Strain/Indicator: TA98, Metabolic Activation: NONE, Method: VAPOR CHAMBER inactive; negative | Test System: AMES SALMONELLA TYPHIMURIUM, Strain/Indicator: TA98, Metabolic Activation: RAT, LIVER, S-9, AROCLOR 1254, Method: DESICCATOR inactive; negative | Test System: AMES SALMONELLA TYPHIMURIUM, Strain/Indicator: TA98, Metabolic Activation: RAT, LIVER, S-9, AROCLOR 1254, Method: VAPOR CHAMBER inactive; negative | Test System: AMES SALMONELLA TYPHIMURIUM, Strain/Indicator: TA100, Metabolic Activation: NONE, Method: DESICCATOR inactive; negative | Test System: AMES SALMONELLA TYPHIMURIUM, Strain/Indicator: TA100, Metabolic Activation: NONE, Method: VAPOR CHAMBER inactive; negative | Test System: AMES SALMONELLA TYPHIMURIUM, Strain/Indicator: TA100, Metabolic Activation: RAT, LIVER, S-9, AROCLOR 1254, Method: DESICCATOR inactive; negative | Test System: AMES SALMONELLA TYPHIMURIUM, Strain/Indicator: TA100, Metabolic Activation: RAT, LIVER, S-9, AROCLOR 1254, Method: VAPOR CHAMBER inactive; negative | Test System: AMES SALMONELLA TYPHIMURIUM, Strain/Indicator: TA1535, Metabolic Activation: NONE, Method: DESICCATOR inactive; negative | Test System: AMES SALMONELLA TYPHIMURIUM, Strain/Indicator: TA1535, Metabolic Activation: NONE, Method: VAPOR CHAMBER inactive; negative | Test System: AMES SALMONELLA TYPHIMURIUM, Strain/Indicator: TA1535, Metabolic Activation: RAT, LIVER, S-9, AROCLOR 1254, Method: DESICCATOR inactive; negative | Test System: AMES SALMONELLA TYPHIMURIUM, Strain/Indicator: TA1535, Metabolic Activation: RAT, LIVER, S-9, AROCLOR 1254, Method: VAPOR CHAMBER inactive; negative | Test System: AMES SALMONELLA TYPHIMURIUM, Strain/Indicator: TA1537, Metabolic Activation: NONE, Method: DESICCATOR inactive; negative | Test System: AMES SALMONELLA TYPHIMURIUM, Strain/Indicator: TA1537, Metabolic Activation: NONE, Method: VAPOR CHAMBER inactive; negative | Test System: AMES SALMONELLA TYPHIMURIUM, Strain/Indicator: TA1537, Metabolic Activation: RAT, LIVER, S-9, AROCLOR 1254, Method: DESICCATOR inactive; negative | Test System: AMES SALMONELLA TYPHIMURIUM, Strain/Indicator: TA1537, Metabolic Activation: RAT, LIVER, S-9, AROCLOR 1254, Method: VAPOR CHAMBER inactive; negative | Test System: AMES SALMONELLA TYPHIMURIUM, Strain/Indicator: TA1538, Metabolic Activation: NONE, Method: DESICCATOR inactive; negative | Test System: AMES SALMONELLA TYPHIMURIUM, Strain/Indicator: TA1538, Metabolic Activation: NONE, Method: VAPOR CHAMBER inactive; negative | Test System: AMES SALMONELLA TYPHIMURIUM, Strain/Indicator: TA1538, Metabolic Activation: RAT, LIVER, S-9, AROCLOR 1254, Method: DESICCATOR inactive; negative | Test System: AMES SALMONELLA TYPHIMURIUM, Strain/Indicator: TA1538, Metabolic Activation: RAT, LIVER, S-9, AROCLOR 1254, Method: VAPOR CHAMBER inactive; negative | [1] inactive; negative | [2] inactive; negative

CC(=O)Nc1ccc2c(=O)c(=O)c3cccc4ccc1c2c43
inactive: Test System: AMES SALMONELLA TYPHIMURIUM, Strain/Indicator: TA98(1,8-DNP6), Metabolic Activation: NONE, Method: STANDARD PLATE inactive; negative | [3] inactive; negative | Test System: AMES SALMONELLA TYPHIMURIUM, Strain/Indicator: YG1024, Metabolic Activation: NONE, Method: STANDARD PLATE inactive; negative
active: Test System: AMES SALMONELLA TYPHIMURIUM, Strain/Indicator: TA98(1,8-DNP6), Metabolic Activation: RAT, LIVER, S-9, AROCLOR 1254, Method: STANDARD PLATE active; positive | [4] active; positive | Test System: AMES SALMONELLA TYPHIMURIUM, Strain/Indicator: YG1024, Metabolic Activation: RAT, LIVER, S-9, AROCLOR 1254, Method: STANDARD PLATE active; positive

O=C(ON(OCc1ccccc1)C(=O)c1ccccc1)c1ccc(Cl)cc1
active: [5] active; positive | Test System: AMES SALMONELLA TYPHIMURIUM, Strain/Indicator: TA100, Metabolic Activation: RAT, S-9, AROCLOR, Method: STANDARD PLATE active; positive

COC(=O)Nc1nc2ccc(O)cc2[nH]1
inactive: [3] inactive; negative | [4] inactive; negative | [5] inactive; negative | Test System: AMES SALMONELLA TYPHIMURIUM, Strain/Indicator: TA100, Metabolic Activation: RAT, LIVER, S-9, AROCLOR 1254, Method: STANDARD PLATE inactive; negative | [6] inactive; negative | Test System: AMES SALMONELLA TYPHIMURIUM, Strain/Indicator: TA1535, Metabolic Activation: RAT, LIVER, S-9, AROCLOR 1254, Method: STANDARD PLATE inactive; negative | [7] inactive; negative | Test System: AMES SALMONELLA TYPHIMURIUM, Strain/Indicator: TA1537, Metabolic Activation: RAT, LIVER, S-9, AROCLOR 1254, Method: STANDARD PLATE inactive; negative

C=C[Si](C)(C)CCl
inactive: Test System: AMES SALMONELLA TYPHIMURIUM, Strain/Indicator: TA98, Metabolic Activation: HAMSTER, LIVER, S-9, AROCLOR 1254 (10%), Method: STANDARD PLATE inactive; negative | [3] inactive; negative | Test System: AMES SALMONELLA TYPHIMURIUM, Strain/Indicator: TA98, Metabolic Activation: RAT, LIVER, S-9, AROCLOR 1254 (10%), Method: STANDARD PLATE inactive; negative | Test System: AMES SALMONELLA TYPHIMURIUM, Strain/Indicator: TA100, Metabolic Activation: HAMSTER, LIVER, S-9, AROCLOR 1254 (10%), Method: STANDARD PLATE inactive; negative | [5] inactive; negative | Test System: AMES SALMONELLA TYPHIMURIUM, Strain/Indicator: TA100, Metabolic Activation: RAT, LIVER, S-9, AROCLOR 1254 (10%), Method: STANDARD PLATE inactive; negative | Test System: AMES SALMONELLA TYPHIMURIUM, Strain/Indicator: TA1535, Metabolic Activation: HAMSTER, LIVER, S-9, AROCLOR 1254 (10%), Method: STANDARD PLATE inactive; negative | [6] inactive; negative | Test System: AMES SALMONELLA TYPHIMURIUM, Strain/Indicator: TA1535, Metabolic Activation: RAT, LIVER, S-9, AROCLOR 1254 (10%), Method: STANDARD PLATE inactive; negative | Test System: AMES SALMONELLA TYPHIMURIUM, Strain/Indicator: TA1537, Metabolic Activation: HAMSTER, LIVER, S-9, AROCLOR 1254 (10%), Method: STANDARD PLATE inactive; negative | [7] inactive; negative | Test System: AMES SALMONELLA TYPHIMURIUM, Strain/Indicator: TA1537, Metabolic Activation: RAT, LIVER, S-9, AROCLOR 1254 (10%), Method: STANDARD PLATE inactive; negative | Test System: AMES SALMONELLA TYPHIMURIUM, Strain/Indicator: TA1538, Metabolic Activation: HAMSTER, LIVER, S-9, AROCLOR 1254 (10%), Method: STANDARD PLATE inactive; negative | Test System: AMES SALMONELLA TYPHIMURIUM, Strain/Indicator: TA1538, Metabolic Activation: NONE, Method: STANDARD PLATE inactive; negative | Test System: AMES SALMONELLA TYPHIMURIUM, Strain/Indicator: TA1538, Metabolic Activation: RAT, LIVER, S-9, AROCLOR 1254 (10%), Method: STANDARD PLATE inactive; negative | [1] inactive; negative. reevaluation of results: inconclusive | [2] inactive; negative. reevaluation of results: negative

O=C(O[C@H]1Cc2c(O)cc(O)cc2O[C@H]1c1ccc(O)c(O)c1)c1cc(O)c(O)c(O)c1
inactive: Test System: Ames Salmonella typhimurium, Strain/Indicator: TA102, Metabolic Activation: None, Method: Preincubation inactive; negative | Test System: Ames Salmonella typhimurium, Strain/Indicator: TA102, Metabolic Activation: Rat, Liver, S-9, Aroclor 1254 in 0.154 M KCl, Method: Preincubation inactive; negative

c1ccc2c(c1)C1CCCCC1[C@@H]1O[C@@H]21 (some centres undefined)
inactive: [3] inactive; negative | [5] inactive; negative
